Results on 32 compounds are retold here after patent publication US7951829B2, “Benzimidazole modulators of VR1” (Janssen Pharmaceutica NV, priority 2006, dated 2011).

Molecules are shown by their SMILES.

This experiment concerns the target T1, hVR1 (Homo sapiens, UniProt Q8NER1).
T1 construct: expressed in transfected cells; host or cells: HEK293
Put plainly: Human VR1 (hVR1) Functional Assay (FLIPR intracellular calcium, capsaicin challenge). The experiment is classed as cell-based. The conditions noted are these: capsaicin 0.030 μM, HEK293 cells expressing hVR1; for inhibition at 1 µM: test concentration 1 μM.

T1 sequence (Q8NER1 whole entry): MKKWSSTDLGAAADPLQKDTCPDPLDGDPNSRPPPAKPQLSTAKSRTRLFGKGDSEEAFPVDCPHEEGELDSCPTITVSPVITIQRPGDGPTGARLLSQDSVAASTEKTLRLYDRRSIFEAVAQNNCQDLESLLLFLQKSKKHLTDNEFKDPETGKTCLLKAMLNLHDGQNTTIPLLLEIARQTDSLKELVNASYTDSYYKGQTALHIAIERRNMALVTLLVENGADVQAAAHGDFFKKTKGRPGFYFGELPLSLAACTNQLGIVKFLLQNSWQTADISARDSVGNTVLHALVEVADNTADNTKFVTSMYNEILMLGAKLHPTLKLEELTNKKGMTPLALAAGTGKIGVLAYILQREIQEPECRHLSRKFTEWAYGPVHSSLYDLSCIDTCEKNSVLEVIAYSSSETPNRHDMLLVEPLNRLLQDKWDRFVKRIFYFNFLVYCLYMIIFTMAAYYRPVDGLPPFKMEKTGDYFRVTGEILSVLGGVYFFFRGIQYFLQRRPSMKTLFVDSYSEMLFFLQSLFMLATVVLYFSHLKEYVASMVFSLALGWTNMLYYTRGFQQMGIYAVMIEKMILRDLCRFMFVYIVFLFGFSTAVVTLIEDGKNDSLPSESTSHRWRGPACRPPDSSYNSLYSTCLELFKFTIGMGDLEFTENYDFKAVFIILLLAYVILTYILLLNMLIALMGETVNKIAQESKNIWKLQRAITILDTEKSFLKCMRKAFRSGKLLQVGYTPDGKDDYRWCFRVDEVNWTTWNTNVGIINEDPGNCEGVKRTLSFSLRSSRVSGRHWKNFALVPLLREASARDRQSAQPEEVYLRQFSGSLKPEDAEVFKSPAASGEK

As to `CNS(=O)(=O)c1ccccc1-c1ccc2[nH]c(/C=C/c3ccc(C(=O)O)cc3)nc2c1` [Cpd 453, (E)-4-{2-[5-(2-methylsulfamoyl-phenyl)-1H-benzimidazol-2-yl]-vinyl}-benzoic acid], the inhibition at 1 µM was determined as 22%. As for `NS(=O)(=O)c1ccccc1-c1ccc2[nH]c(CCc3ccc(F)cc3F)nc2c1` [Cpd 392, 2-{2-[2-(2,4-difluoro-phenyl)-ethyl]-1H-benzimidazol-5-yl}-benzenesulfonamide], the half-inhibitory concentration (IC50) was 10 nM and the inhibition at 1 µM came to 97%.

As to `Oc1ccccc1-c1cc2nc(/C=C/c3ccc(C(F)(F)F)cc3)[nH]c2cc1Cl` [Cpd 68, (E)-2-{6-chloro-2-[2-(4-trifluoromethyl-phenyl)-vinyl]-1H-benzimidazol-5-yl}-phenol], the 50% inhibitory concentration (IC50) was 329 nM. On to `NS(=O)(=O)c1ccccc1-c1ccc2[nH]c(/C=C/c3cccc(Br)c3)nc2c1` [Cpd 376, (E)-2-{2-[2-(3-bromo-phenyl)-vinyl]-1H-benzimidazol-5-yl}-benzenesulfonamide], for which the IC50 was 28 nM and the inhibition at 1 µM is 100%. For the compound `CNS(=O)(=O)c1ccccc1-c1ccc2[nH]c(/C=C/c3cccc(Cl)c3F)nc2c1` [Cpd 335, (E)-2-{2-[2-(3-chloro-2-fluoro-phenyl)-vinyl]-1H-benzimidazol-5-yl}-N-methyl-benzenesulfonamide], the IC50 stood at 47 nM and the inhibition at 1 µM was determined as 100%. Regarding `OCc1ccccc1-c1cc2nc(/C=C/c3ccc(C(F)(F)F)cc3)[nH]c2cc1F` [Cpd 61, (E)-(2-{6-fluoro-2-[2-(4-trifluoromethyl-phenyl)-vinyl]-1H-benzimidazol-5-yl}-phenyl)-methanol], the IC50 is 75 nM and the inhibition at 1 µM stood at 100%. In the same order, the values of `NS(=O)(=O)c1ccccc1-c1ccc2[nH]c(CCc3cc(F)cc(C(F)(F)F)c3)nc2c1` [Cpd 421, 2-{2-[2-(3-fluoro-5-trifluoromethyl-phenyl)-ethyl]-1H-benzimidazol-5-yl}-benzenesulfonamide] are 10 nM and 95%. On to `CC(C)(C)OC(=O)Nc1ccccc1-c1cc2nc(/C=C/c3ccc(C(C)(C)C)cc3)[nH]c2cc1C(F)(F)F` [Cpd 54, (E)-(2-{2-[2-(4-tert-butyl-phenyl)-vinyl]-6-trifluoromethyl-1H-benzimidazol-5-yl}-phenyl)-carbamic acid tert-butyl ester], for which the inhibition at 1 µM stood at 20%.

As for `CN(C)c1ccc(/C=C/c2nc3cc(-c4ccccc4NS(C)(=O)=O)ccc3[nH]2)cc1` [Cpd 413, (E)-N-(2-{2-[2-(4-dimethylamino-phenyl)-vinyl]-1H-benzimidazol-5-yl}-phenyl)-methanesulfonamide], the IC50 came to 240 nM and the inhibition at 1 µM came out at 82%. The like results for `CNS(=O)(=O)c1ccccc1-c1ccc2[nH]c(/C=C/c3ccc(Cl)cc3S(C)(=O)=O)nc2c1` [Cpd 340, (E)-2-{2-[2-(4-chloro-2-methanesulfonyl-phenyl)-vinyl]-1H-benzimidazol-5-yl}-N-methyl-benzenesulfonamide] were, in that order, 62 nM and 98%. The like results for `CNS(=O)(=O)c1ccccc1-c1ccc2[nH]c(/C=C/c3ccc(S(=O)(=O)C(F)(F)F)cc3)nc2c1` [Cpd 342, (E)-N-methyl-2-{2-[2-(4-trifluoromethanesulfonyl-phenyl)-vinyl]-1H-benzimidazol-5-yl}-benzenesulfonamide] were, in that order, 24 nM and 98%. `CNS(=O)(=O)c1ccccc1-c1ccc2[nH]c(/C=C/c3cc(C(F)(F)F)cc(C(F)(F)F)c3)nc2c1` [Cpd 333, (E)-2-{2-[2-(3,5-bis-trifluoromethyl-phenyl)-vinyl]-1H-benzimidazol-5-yl}-N-methyl-benzenesulfonamide]: the concentration for half-maximal inhibition (IC50) was found to be 27 nM and the inhibition at 1 µM came out at 98%. In the case of `CC(C)(C)OC(=O)Nc1ccccc1-c1ccc2[nH]c(C3CC3c3ccc(C(F)(F)F)cc3)nc2c1` (stereo not drawn) [Cpd 473, (2-{2-[2-(4-trifluoromethyl-phenyl)-cyclopropyl]-1H-benzimidazol-5-yl}-phenyl)-carbamic acid tert-butyl ester], the half-inhibitory concentration (IC50) was more than 500 nM. For the compound `CNS(=O)(=O)c1ccccc1-c1ccc2[nH]c(/C=C/c3ccc(F)cc3)nc2c1` [Cpd 315, (E)-2-{2-[2-(4-fluoro-phenyl)-vinyl]-1H-benzimidazol-5-yl}-N-methyl-benzenesulfonamide], the 50% inhibitory concentration (IC50) stood at 11 nM and the inhibition at 1 µM is 100%.

On to `NS(=O)(=O)c1ccccc1-c1ccc2[nH]c(CCc3ccc(F)cc3)nc2c1` [Cpd 420, 2-{2-[2-(4-fluoro-phenyl)-ethyl]-1H-benzimidazol-5-yl}-benzenesulfonamide], for which the IC50 is 15 nM and the inhibition at 1 µM turned out to be 93%. Turning to `CC(=O)Nc1ccccc1-c1ccc2[nH]c(/C=C/c3ccc(SC(F)(F)F)cc3)nc2c1` [Cpd 37, (E)-N-(2-{2-[2-(4-trifluoromethylsulfanyl-phenyl)-vinyl]-1H-benzimidazol-5-yl}-phenyl)-acetamide], the inhibition at 1 µM was found to be 18%. As for `NS(=O)(=O)c1ccccc1-c1ccc2[nH]c(CCc3ccccc3)nc2c1` [Cpd 397, 2-(2-phenethyl-1H-benzimidazol-5-yl)-benzenesulfonamide], the IC50 was 23 nM and the inhibition at 1 µM stood at 99%. In the same order, the values of `O=S(=O)(c1ccc(/C=C/c2nc3cc(-c4ccccc4CO)ccc3[nH]2)cc1)C(F)(F)F` [Cpd 42, (E)-(2-{2-[2-(4-trifluoromethanesulfonyl-phenyl)-vinyl]-1H-benzimidazol-5-yl}-phenyl)-methanol] are 22 nM and 100%.

For `NS(=O)(=O)c1ccccc1-c1ccc2[nH]c(/C=C/c3ccccc3Cl)nc2c1` [Cpd 365, (E)-2-{2-[2-(2-chloro-phenyl)-vinyl]-1H-benzimidazol-5-yl}-benzenesulfonamide], the IC50 was 17 nM and the inhibition at 1 µM turned out to be 99%.

As to `NS(=O)(=O)c1ccccc1-c1ccc2[nH]c(/C=C/c3c(F)cccc3F)nc2c1` [Cpd 372, (E)-2-{2-[2-(2,6-difluoro-phenyl)-vinyl]-1H-benzimidazol-5-yl}-benzenesulfonamide], the IC50 came out at 71 nM and the inhibition at 1 µM is 97%.

For the compound `NS(=O)(=O)c1ccccc1-c1ccc2[nH]c(/C=C/c3ccc(C(F)(F)F)c(F)c3)nc2c1` [Cpd 423, (E)-2-{2-[2-(3-fluoro-4-trifluoromethyl-phenyl)-vinyl]-1H-benzimidazol-5-yl}-benzenesulfonamide], the IC50 came to 11 nM and the inhibition at 1 µM stood at 99%. Take `NS(=O)(=O)c1ccccc1-c1ccc2[nH]c(CCc3ccc(S(=O)(=O)C(F)(F)F)cc3)nc2c1` [Cpd 131, 2-{2-[2-(4-trifluoromethanesulfonyl-phenyl)-ethyl]-1H-benzimidazol-5-yl}-benzenesulfonamide]: the IC50 was 31 nM and the inhibition at 1 µM is 96%.

Regarding `CS(=O)(=O)Nc1ccccc1-c1ccc2[nH]c(/C=C/c3ccc(F)c(Br)c3)nc2c1` [Cpd 409, (E)-N-(2-{2-[2-(3-bromo-4-fluoro-phenyl)-vinyl]-1H-benzimidazol-5-yl}-phenyl)-methanesulfonamide], the inhibition at 1 µM stood at 43%. With `CC(=O)Nc1ccccc1-c1ccc2[nH]c(/C=C/c3ccc(C(F)(F)F)cc3)nc2c1` [Cpd 478, (E)-N-(2-{2-[2-(4-trifluoromethyl-phenyl)-vinyl]-1H-benzimidazol-5-yl}-phenyl)-acetamide], the IC50 was more than 500 nM. Consider `NS(=O)(=O)c1ccccc1-c1ccc2[nH]c([C@H]3C[C@@H]3c3ccc(C(F)(F)F)cc3)nc2c1` [Cpd 504, 2-{2-[(1S,2S)-2-(4-trifluoromethyl-phenyl)-cyclopropyl]-1H-benzimidazol-5-yl}-benzenesulfonamide], for which the IC50 was found to be 22 nM and the inhibition at 1 µM came out at 95%. `O=S(=O)(c1ccc(/C=C/c2nc3cc(-c4ccccc4C(F)(F)F)ccc3[nH]2)cc1)C(F)(F)F` [Cpd 481, (E)-2-[2-(4-trifluoromethanesulfonyl-phenyl)-vinyl]-5-(2-trifluoromethyl-phenyl)-1H-benzimidazole]: the inhibition at 1 µM came to 42%. With `O=S(=O)(CC(F)(F)F)Nc1ccccc1-c1ccc2[nH]c(/C=C/c3ccc(C(F)(F)F)cc3)nc2c1` [Cpd 459, (E)-2,2,2-trifluoro-ethanesulfonic acid (2-{2-[2-(4-trifluoromethyl-phenyl)-vinyl]-1H-benzimidazol-5-yl}-phenyl)-amide], the inhibition at 1 µM was 0%.

Regarding `CC(C)(C)c1ccc(/C=C/c2nc3cc(-c4ccccc4N)ccc3[nH]2)cc1` [Cpd 11, (E)-2-{2-[2-(4-tert-butyl-phenyl)-vinyl]-1H-benzimidazol-5-yl}-phenylamine], the IC50 worked out at 210 nM and the inhibition at 1 µM turned out to be 100%. Take `NS(=O)(=O)c1ccccc1-c1ccc2[nH]c(/C=C/c3ccc(F)c(Cl)c3)nc2c1` [Cpd 432, (E)-2-{2-[2-(3-chloro-4-fluoro-phenyl)-vinyl]-1H-benzimidazol-5-yl}-benzenesulfonamide]: the IC50 was found to be 15 nM and the inhibition at 1 µM amounted to 98%. `CS(=O)(=O)Nc1ccccc1-c1ccc2[nH]c(/C=C/c3ccc(-c4ccccc4)cc3)nc2c1` [Cpd 475, (E)-N-{2-[2-(2-biphenyl-4-yl-vinyl)-1H-benzimidazol-5-yl]-phenyl}-methanesulfonamide]: the IC50 was determined as 77 nM. Regarding `O=S(=O)(c1ccc(/C=C/c2nc3cc(-c4ccccc4O)ccc3[nH]2)cc1)C(F)(F)F` [Cpd 41, (E)-2-{2-[2-(4-trifluoromethanesulfonyl-phenyl)-vinyl]-1H-benzimidazol-5-yl}-phenol], the concentration for half-maximal inhibition (IC50) worked out at 280 nM and the inhibition at 1 µM turned out to be 90%. For the compound `CNS(=O)(=O)c1ccccc1-c1ccc2[nH]c(/C=C/c3ccc(F)c(Br)c3)nc2c1` [Cpd 317, (E)-2-{2-[2-(3-bromo-4-fluoro-phenyl)-vinyl]-1H-benzimidazol-5-yl}-N-methyl-benzenesulfonamide], the IC50 turned out to be 11 nM and the inhibition at 1 µM was 101%.

What is called inhibition is the drop in the measured response relative to a control, in per cent. Usually IC50 stands for the concentration at which inhibition is half-maximal.
